From US6492137B1, “Response element compositions and assays employing same” (The Salk Institute for Biological Studies, priority 1989, dated 2002) come the findings set out here.

For the series, the target named is T1, TRβ (Homo sapiens, UniProt P10828).
T1 sequence (P10828 1-461): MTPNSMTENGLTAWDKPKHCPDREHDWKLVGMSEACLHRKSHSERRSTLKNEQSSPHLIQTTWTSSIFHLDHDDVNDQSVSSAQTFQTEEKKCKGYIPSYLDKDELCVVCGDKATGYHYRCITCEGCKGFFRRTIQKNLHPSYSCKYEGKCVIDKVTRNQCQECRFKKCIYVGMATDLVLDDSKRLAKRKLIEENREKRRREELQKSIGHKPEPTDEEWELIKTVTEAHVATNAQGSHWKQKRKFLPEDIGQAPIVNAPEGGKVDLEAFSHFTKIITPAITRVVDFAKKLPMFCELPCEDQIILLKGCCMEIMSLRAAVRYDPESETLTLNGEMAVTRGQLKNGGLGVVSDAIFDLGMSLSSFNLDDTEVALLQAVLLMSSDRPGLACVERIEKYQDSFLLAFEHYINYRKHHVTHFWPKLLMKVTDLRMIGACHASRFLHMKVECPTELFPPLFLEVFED
The experiment in a line: ΔSV-CAT reporter cotransfection assay in CV-1 cells with TRβ expression plasmid, ±T3. In kind it is cell-based. On the set-up: expressed in transfected cells; host or cells: CV-1 (monkey kidney). To be noted: TRβ expression vector. From the text: Receptor expression plasmids used in the following cotransfection assays have been described previously (pRShTRβ [see Thompson, et al., Proc. Natl. Acad. Sci. U.S.A. 86: 3494-3498 (1989)]; pRShRARα [see Giguere, et al., Nature 330: 624-629 (1987)]; pRShRARβ and pRshRARγ [see Ishikawa, et al., Mol. Endocrinol, 4: 837-844 (1990)]; and pRShVDR, [Schule, et al., Cell 61: 497-504 (1990)]. A basal reporter plasmid ΔSV-CAT was constructed by replacing the TK promoter in TK-CAT [Damm, et al., Nature 339: 593-597 (1989)] with the SphI-HindIII fragment of the SV40 early promoter. All of the recombinant CAT reporter plasmids used herein harbor a single copy of the indicated oligonucleotides at the unique HindIII site upstream of the SV40 promoter. […] To improve production of receptor proteins in COS cells, a new eukaryotic expression vector pCMX was prepared by modifying the plasmid CDM8 [Seed, B., Nature 329: 840-842 (1987)]. The CDM8 was cut with MluI and StuI in order to release the DNA fragment encoding the CMV/T7 promoter, SV40 small t intron/poly A signal, polyoma virus enhancer/origin, and SV40 enhancer/origin. The resulting fragment was ligated to a larger fragment of PvuII-digested PUC19. An internal deletion was introduced between unique BamHI and BclI sites present in the DCM8 portion. The stuffer sequence flanked by XbaI sites was replaced with a synthetic polylinker coding for 5′-KpnI/Asp718-EcoRV-BamHI -MscI-NheI-3′, followed by a stretch of 5′-[…]-3′ (SEQ ID NO:48) which can function as a universal termination signal for protein translation. The coding sequence of the luciferase [de Wet, et al., Mol. Cell. Biol. 7: 725-737 (1987)] and human TRβ, RARα, and VDR was placed in the polylinker region of the pCMX, generating pCMX-LUC, Pcmx-Htrβ, pCMX-hRARα, and pCMX-hVDR, respectively. The translation start site of the RARα was modified to […] by attaching the synthetic linker encoding a consensus translation start signal [Hollenberg, et al., Cell 55: 899-906 (1988)].
For cotransfection assays, a monkey kidney cell line CV-1 was kept in Dulbecco's modified Eagle's medium (DMEM) supplemented with 10% charcoal-resin double split calf bovine serum. Transfections were performed via calcium-phosphate precipitation method as described by Umesono, et al. in Cell 57: 1139-1146 (1989), with 0.5 μg of a pRS receptor expression plasmid, 1.0 μg of a reporter CAT plasmid, 5 μg of pRAS-βGAL [Umesono, et al., Cell 57: 1139-1146 (1989)] as an internal control, and 8.5 μg of carrier plasmid pUC19. The cells were transfected for 8 hours; after washing the DNA precipitates, the cells were then incubated for an additional 36 hours with or without the ligand (T3, 100 nM; RA, 1 μM; 1,25-(OH)2 vitamin D3, 100 nM). Cell extracts were prepared for βGAL and CAT assays, as described by Umesono, et al., supra. Transfection of F9 teratocarcinoma cells was carried out employing a similar method except the cells were incubated for 12 hours in the presence of the DNA precipitates, and the RA was added at 1 μM for another 24 hours before harvesting the cells. 2, 5, and 4 μg of the reporter, pRAS-βGAL, and pUC19 were used, respectively.
Target hormone response elements described in FIG. 3 were synthesized as double-stranded oligonucleotides with an overhanging tetranucleotide (5′-agct-3′) at both ends. A single copy of these oligonucleotides was cloned at the unique HindIII site present in the basal promoter CAT construct ΔSV-CAT. Capitalized portions in the nucleotide sequences correspond to those found in the natural promoters except TREp and rGH21, which are synthetic. Bold letters indicate the “AGGTCA” motif and “X” denotes a nucleotide substitution from this motif.
For the substance “GDR-3: identical to DR-3 except half-site changed to AGAACA, a GRE half-site (SEQ ID NO:26) (AGCTTCAGAACAAGGAGAACAGAGAGCT; DNA, backbone not given here; double-stranded DNA response element with agct overhangs, cloned into reporter)”, the “T3 responsiveness (in words)” value is “completely inactive”.

As for “GDR-4: identical to DR-4 except half-site changed to AGAACA, a GRE half-site (SEQ ID NO:28) (AGCTTCAGAACACAGGAGAACAGAGAGCT; DNA, backbone not given here; double-stranded DNA response element with agct overhangs, cloned into reporter)”, the “T3 responsiveness (in words)” value is “completely inactive”.

On to “TREp: optimized palindromic rat growth hormone TRE (SEQ ID NO:10) (AGCTTCAGGTCATGACCTGAGAGCT; DNA, backbone not given here; double-stranded response element with agct overhangs, cloned into reporter plasmid) [reference compound]”, for which the “T3 responsiveness (in words)” value is “responsive to T3”.
